Data from patent publication US20230293544A1, “METHODS, DOSAGE REGIMENS, AND COMPOSITIONS FOR TREATING HIDRADENITIS” (PFIZER INC., priority 2022, published 2023).
Several values for one entry are separate records, joined by “and”; a condition that tells them apart may be missing. Equal values may be shown once.

Columns and labels:
[1] = system: human patients with moderate to severe hidradenitis suppurativa (HS); experiment: Safety and tolerability in the phase 2A HS study (TEAEs, vital signs, laboratory abnormalities); format: in vivo
Experimental: The safety and tolerability of PF-06700841 over time was assessed using incidence of treatment-emergent adverse events (TEAEs), vital signs, incidence of specific clinical laboratory abnormalities including but not limited to hemoglobin, neutrophils, platelets, lymphocytes, lipids, eGFR, liver function tests (LFTs) and CPK.
All participants who received at least one dose of randomized study medication and have a baseline are included in the full analysis set (FAS), the population for the efficacy analysis. The safety analysis set (SAS) includes all participants who received at least one dose of investigational product. The HiSCR response data at week 16 comparing active treatment group and placebo group was to be analyzed using the Cochran Mantel Hanzel (CMH) test with Minimum Risk (MR) weight strategy after treating missing data as non-responders, adjusting for the stratification factor of prior anti-TNF failure status. Due to very small number of participants with concomitant use of antibiotics status at baseline in some subgroups, this was not included as stratum factor in the model. Hochberg's step-up procedure was employed to address any multiplicity arising from the analysis of 3 different treatments within the same study and overall familywise error rate was controlled at 0.1 level. All the continuous secondary endpoints were analyzed using ANCOVA model, where missing observation were imputed using multiple imputation (MI) method.

[2] = system: human patients with moderate to severe hidradenitis suppurativa (HS); experiment: Phase 2A double-blind, parallel group study of efficacy vs placebo in hidradenitis suppurativa; format: in vivo
Text: This study provided data on efficacy, safety, tolerability, and pharmacokinetics of the therapeutic agents being examined in the oral treatment of moderate to severe HS. […] This included an up-to-6-week Screening Period, a 16-week Dosing Period and a 4-week Follow-up Period. The study enrolled a total of approximately 192 participants (expected to provide approximately 156 completers). Following the screening period, participants who meet eligibility criteria at the baseline visit were randomly assigned to receive 1 of 6 treatments. One oral dose level of each therapeutic agent, one of which was [(1S)-2,2-difluorocyclo-propyl][(1R,5S)-3-{2-[(1-methyl-1H-pyrazol-4-yl)amino]pyrimidin-4-yl}-3,8-diazabicyclo[3.2.1]oct-8-yl]methanone (45 mg QD), or matching placebo in a 3:1 ratio was investigated. For analysis, placebo groups were combined to yield final therapeutic agent:placebo ratio of 1:1:1:1 for each therapeutic agent and pooled placebo. No more than 30% of enrolled participants were inadequate anti-TNF responders. Participants were stratified according to whether they were an inadequate anti-TNF responder or not.
Additionally, no more than 20% of enrolled participants entered the study on a background of concomitant oral antibiotic therapy for treatment of HS; the dosing regimen (dose and frequency) must have been stable for at least 8 weeks (56 days) prior to the baseline (Day 1) visit and remained stable throughout study participation. Antibiotics taken on an “as needed” (PRN) basis were not considered a stable dose. Participants were stratified according to whether they were on a background of concomitant antibiotic therapy or not. The chronic toxicology package for each asset supported the planned study treatment duration of 16 weeks. Hidradenitis suppurative clinical response, the primary endpoint used, is defined as: […]
at least a 50% reduction in the total abscess and inflammatory nodule (AN) count relative to baseline, and no increase in abscess count, and no increase in draining fistula count.
The above Examples were a phase 2A double-blind, parallel group study assessing the efficacy of PF-06700841, a dual inhibitor of human tyrosine kinase 2 (TYK2) and Janus kinase 1 (JAK1), compared to Placebo in human patients with moderate to severe hidradenitis suppurativa (HS).
This was a randomized, double-blind, parallel-group multi-center study that enrolled approximately 192 participants with moderate to severe HS (with approximately 156 completers). Participants were randomized to PF-06700841 (along with two other treatments studied contemporaneously) and matching placebo in a 3:1 ratio. Each randomized participant was followed for a 16-week dosing period and a 4-week follow-up period. For analysis, placebo groups were combined to yield a 1:1:1:1 ratio for each treatment and pooled placebo. No more than 30% participants were enrolled with inadequate anti-TNF response and no more that 20% of the participants were on background antibiotic therapy, and stratified randomization strategy was adopted for this study. Efficacy data from all randomized participants until week 16 are in the scope of this report.
The primary objective of the study was to evaluate the efficacy and safety of PF-06700841 vs placebo in participants with HS. The primary efficacy endpoint was percentage of participants with HiSCR response (50% reduction from baseline in abscess and inflammatory nodule (AN) count, with no increase in abscess and draining fistula count from baseline) at week 16. […]

[3] = Population PK analysis in the phase 2A HS study; format: in vivo, human; settings: preliminary population PK analysis
Experimental: Blood was collected to obtain the PK samples at pre-dose, Weeks 1, 2, 4, 6, 8, and 16, and at 0.5-, 1-, 2-, and 4-hours post-dose on Week 8. The available data was analyzed using population PK modeling.

[4] = system: patients with moderate to severe HS; settings: cited from earlier work

Row | Compound | Safety and tolerability ([1]; 16-week dosing) | Deaths or cases of herpes zoster/simplex in the study ([1]; in vivo) | Severity of the majority of treatment-emergent adverse events (TEAEs) ([1]; in vivo) | Hazard ratio for time to first flare ([2]; Cox proportional model, vs placebo) | Difference from placebo in Skin Pain NRS30 response rate at week 16 ([2]; PGA-Skin Pain NRS at worst, participants with baseline score 3, LOCF) | Probability of flare, Kaplan Meier plot of time to first flare (FIG. 5) ([2]; at 16 weeks, FAS, versus placebo) | HiSCR response rate at week 16 among Hurley Stage II participants ([2]; baseline Hurley Stage II, week 16) | HiSCR response rate at week 16 among Hurley Stage III participants ([2]; baseline Hurley Stage III, week 16) | More participants compared to placebo achieving total AN count of 0, 1 or 2 at week 16 ([2]; difference from placebo, week 16) | Difference from placebo (δ) in percentage of participants experiencing at least one flare by week 16 ([2]; flare = at least 25% increase in AN count with minimum increase of 2 relative to baseline) | Percentage of Participant Achieving HISCR Response at Week 16, Overall Response n/N (%) ([2]; overall population, FAS, NRI, week 16, 45 mg QD oral) | Difference from Placebo in percent change from baseline at week 16 for the IHS4 score ([2]; week 16) | HiSCR response over time, plot (FIG. 2) ([2]; week 16, versus placebo) | Exposures in HS compared to healthy or other patient populations [3] | Rank-ordered secondary outcomes (lesions, pain, modified Sartorius score) vs placebo ([4]; Week 12, PIONEER II only) | Clinical response rate (HiSCR) at Week 12, PIONEER I ([4]; adalimumab weekly, PIONEER I, Week 12) | Clinical response rate (HiSCR) at Week 12, PIONEER II ([4]; adalimumab weekly, PIONEER II, Week 12)
1 | Cn1cc(Nc2nccc(N3C[C@H]4CC[C@@H](C3)N4C(=O)[C@@H]3CC3(F)F)n2)cn1 [PF-06700841, [(1S)-2,2-difluorocyclo-propyl][(1R,5S)-3-{2-[(1-methyl-1H-pyrazol-4-yl)amino]pyrimidin-4-yl}-3,8-diazabicyclo[3.2.1]oct-8-yl]methanone] | generally safe and well tolerated | no deaths or cases of herpes zoster/simplex | mild and moderate | 0.4 | 6.5% | lowest probability of flare at 16 weeks | 59.4% | 40% | 15.6% | −22.3% | 51.9% and 27/52 (51.9) % | −14.6% | highest response at week 16 | expected exposures in HS appear to be achieved | – | – | –
2 | adalimumab | – | – | – | – | – | – | – | – | – | – | – | – | – | – | significantly greater improvement than the placebo groups | 41.8% | 58.9%
